In brackets after ≈: the same amount, converted by molar mass.
Key:
Klebsiella pneumoniae DT = assay: MIC by agar dilution method, Klebsiella pneumoniae DT; type: cell-based; conditions: Trypticase soy agar, about 10^8 CFU/ml, 18 hours at 37° C., read-out: MIC (minimal inhibitory concentration)
Procedure: (§1) Several examples of the compound (I) as obtained in Examples were tested for MIC (mcg/ml) by the following method.
(§2) The MIC of each test compound was determined by the agar dilution method. Thus, 1.0 ml of each aqueous serial dilution of the test compound was poured into a petri dish and then […] of Trypticase soy agar was poured into the dish followed by intimate mixing. The mixed agar plate was smeared with the suspension of a test organism (about 10^8 CFU/ml).
(4) Klebsiella pneumoniae DT

Escherichia coli 0-111 = assay: MIC by agar dilution method, Escherichia coli 0-111; type: cell-based; conditions: 0111, Trypticase soy agar, about 10^8 CFU/ml, 18 hours at 37° C., read-out: MIC (minimal inhibitory concentration)
Procedure: as §1, §2
(2) Escherichia coli 0-111

[1] = system: Citrobacter freundii IFO 12681; assay: MIC by agar dilution method, Citrobacter freundii IFO 12681; type: cell-based; conditions: IFO12681, Trypticase soy agar, about 10^8 CFU/ml, 18 hours at 37° C., read-out: MIC (minimal inhibitory concentration)
Procedure: as §1, §2
(3) Citrobacter freundii IFO 12681

[2] = stability against a mouse kidney homogenate; type: in vitro ADME; conditions: 0.05M phosphate buffer (pH 6.9), 30° C., test compound solution 1 mg/ml mixed 1:1, read-out: Half life (T1/2)
Procedure: Several examples of the objective compound (I) as obtained in Examples were tested for stability against a mouse Kidney homogenate by the following method.
A kidney homogenate was prepared by grinding down 50 g of the mouse kidney in 200 ml of cooled 0.05M phosphate buffer (pH 6.9) and stored at -20° C. A 200 μl portion of this mouse kidney homogenate and 200 μl of an aqueous solution of the test compound (1 mg/ml) were intimately mixed and kept at 30° C. At 10-minute intervals, a 25 μl portion of the mixture was taken and added to 25 μl of ice bath-cooled methanol to thereby terminate the reaction between renal enzymes and the test compound. The amount of the remaining test compound was determined by measuring the inhibitory action against β-lactamaseproduced by Proteus vulgaris GN4413 or Enterobacter cloacae TN1282 by the method described in Journal of Antibiotics, 34, 212-217 (1981).

[3] = system: Staphylococcus aureus FDA 209P; assay: MIC by agar dilution method, Staphylococcus aureus FDA 209P; type: cell-based; conditions: FDA209P, Trypticase soy agar, about 10^8 CFU/ml, 18 hours at 37° C., read-out: MIC (minimal inhibitory concentration)
Procedure: as §1, §2
(1) Staphylococcus aureus FDA 209P

Molecule `O=C(O)C1=C(Sc2ncccn2)C[C@@H]2[C@H](C3(O)CCS(=O)(=O)C3)C(=O)N12` (stereo partly drawn) [2 (b), sodium 5,6-cis-3-(2-pyrimidinylthio)-6-(1-hydroxy-3-thiacyclopentyl-3,3-dioxido)-7-oxo-1-azabicyclo[3.2.0]hept-2-ene-2-carboxylate] has an MIC (Klebsiella pneumoniae DT) of 6.25 µg/mL, an MIC (Escherichia coli 0-111) of 3.13 µg/mL and an MIC [1] of 6.25 µg/mL. The half-life [2] was over 2 h and the MIC [3] was 0.78 µg/mL.

With `CC(=O)NCCSC1=C(C(=O)O)N2C(=O)[C@@H](C(O)CS(C)(=O)=O)[C@H]2C1` (stereo partly drawn) [12 (b), sodium 5,6-cis-3-(2-acetamidoethylthio)-6-(1-hydroxy-2-methylsulfonylethyl)-7-oxo-1-azabicyclo[3.2.0]hept-2-ene-2-carboxylate] the MIC (Klebsiella pneumoniae DT) was 1.56 µg/mL, the MIC (Escherichia coli 0-111) was 0.39 µg/mL and the MIC [1] was 3.13 µg/mL. The half-life [2] was over 2 h and the MIC [3] was 1.56 µg/mL.

With `CC(=O)N/C=C/SC1=C(C(=O)O)N2C(=O)[C@@H](C3(O)CCS(=O)(=O)C3)[C@H]2C1` (stereo partly drawn) [13 (b), sodium 5,6-cis-3-[(E)-2-acetamidovinylthio]-6-(1-hydroxy-3-thiacyclopentyl-3,3-dioxido)-7-oxo-1-azabicyclo[3.2.0]hept-2-ene-2-carboxylate] the MIC (Klebsiella pneumoniae DT) was 0.78 µg/mL, the MIC (Escherichia coli 0-111) was 0.39 µg/mL and the MIC [1] was 1.56 µg/mL. The half-life [2] was over 2 h and the MIC [3] was 1.56 µg/mL.

`CCS(=O)(=O)CC(O)C1C(=O)N2C(C(=O)O)=C(SCCNC(C)=O)CC12` (stereo not drawn) [15 (b)] showed an MIC (Klebsiella pneumoniae DT) of 3.13 µg/mL (≈ 7.7 µM), an MIC (Escherichia coli 0-111) of 0.2 µg/mL (≈ 0.492 µM) and an MIC [1] of 3.13 µg/mL (≈ 7.7 µM). For the same molecule, the half-life [2] was over 2 h and the MIC [3] was 6.25 µg/mL (≈ 15.4 µM).

Work on `CC(=O)NCCSC1=C(C(=O)O)N2C(=O)C(C(O)CS(=O)(=O)c3ccccc3)C2C1` (stereo not drawn) [20 (b)] yielded an MIC (Klebsiella pneumoniae DT) of 3.13 µg/mL (≈ 6.89 µM), an MIC (Escherichia coli 0-111) of 0.39 µg/mL (≈ 0.858 µM) and an MIC [1] of 1.56 µg/mL (≈ 3.43 µM). For the same molecule, the half-life [2] was over 2 h and the MIC [3] was 1.59 µg/mL (≈ 3.5 µM).

With `CC(=O)NCCSC1=C(C(=O)O)N2C(=O)[C@@H](C3(O)CCS(=O)(=O)C3)[C@H]2C1` (stereo partly drawn) [Example 1 (c), Sodium 5,6-cis-3-(2-acetamidoethylthio)-6-(1-hydroxy-3-thiacyclopentyl-3,3-dioxido)-7-oxo-1-azabicyclo-[3.2.0]hept-2-ene-2-carboxylate] the MIC (Klebsiella pneumoniae DT) was 3.13 µg/mL, the MIC (Escherichia coli 0-111) was 0.39 µg/mL and the MIC [1] was 3.13 µg/mL. For the same molecule, the half-life [2] was over 2 h and the MIC [3] was 3.13 µg/mL.
